# Assay results published in patent US8710065B2, “Tricyclic inhibitors of kinases” (AbbVie Inc., priority 2011, dated 2014).
# Biological target: T1, GST-tagged-Wee1 kinase (Homo sapiens, UniProt P30291)
# T1 construct: purchased Carnabio (Carna Biosciences) 05-177
# Assay: Wee1 time-resolved fluorescence equilibrium binding assay (displacement of Oregon Green-labeled ATP-competitive kinase probe)
# Details: read-out: Wee-1 inhibition (Ki)
# Description: Wee1 kinase was assayed using a time-resolved fluorescence equilibrium binding assay monitoring displacement of a rapidly reversible Oregon Green-labeled ATP-competitive kinase probe (N-(2-(2-(2-(4-(4-(5-chloro-4-(2-(1-hydroxycyclobutyl)thiazol-5-yl)-1H-pyrrolo[2,3-b]pyridin-2-yl)phenyl)piperazin-1-yl)ethoxy)ethoxy)ethyl)-2′,7′-difluoro-3′,6′-dihydroxy-3-oxo-3H-spiro[isobenzofuran-1,9′-xanthene]-5-carboxamide) by competitive Wee1 inhibitors.
# Table 1 depicts enzyme inhibition data (Ki) for exemplary compounds.
# T1 sequence (P30291 whole entry): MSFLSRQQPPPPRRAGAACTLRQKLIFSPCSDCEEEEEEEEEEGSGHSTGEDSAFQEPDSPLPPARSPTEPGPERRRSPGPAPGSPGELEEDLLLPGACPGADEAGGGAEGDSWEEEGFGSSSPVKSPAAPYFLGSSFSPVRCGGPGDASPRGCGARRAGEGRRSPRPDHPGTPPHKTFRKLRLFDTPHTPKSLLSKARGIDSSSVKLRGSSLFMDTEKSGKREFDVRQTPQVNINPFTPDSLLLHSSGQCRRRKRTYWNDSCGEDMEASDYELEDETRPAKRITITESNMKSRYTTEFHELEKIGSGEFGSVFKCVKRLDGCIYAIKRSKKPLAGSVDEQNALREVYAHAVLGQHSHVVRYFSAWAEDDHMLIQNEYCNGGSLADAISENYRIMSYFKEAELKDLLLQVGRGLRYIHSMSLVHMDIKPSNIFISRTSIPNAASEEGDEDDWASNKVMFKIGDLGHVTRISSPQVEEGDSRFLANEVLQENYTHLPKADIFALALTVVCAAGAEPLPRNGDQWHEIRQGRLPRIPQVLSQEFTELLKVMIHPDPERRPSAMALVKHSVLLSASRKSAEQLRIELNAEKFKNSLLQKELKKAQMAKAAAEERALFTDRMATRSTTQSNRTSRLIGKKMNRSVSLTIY
row,SMILES,Ki
1,"CN1CCC(c2ccc(Nc3ncc4c(=O)n(-c5c(F)cccc5Cl)c5nccn5c4n3)cc2)CC1 [Example 309, 6-(2-chloro-6-fluorophenyl)-2-{[4-(1-methylpiperidin-4-yl)phenyl]amino}imidazo[1,2-a]pyrimido[5,4-e]pyrimidin-5(6H)-one]",< 10 nM
2,"CN(C)C1CCC(NC(=O)c2ccc(Nc3ncc4c(=O)n(-c5c(Cl)cccc5Cl)c5nccn5c4n3)cc2)CC1 (centres unmarked) [Example 238, 4-{[6-(2,6-dichlorophenyl)-5-oxo-5,6-dihydroimidazo[1,2-a]pyrimido[5,4-e]pyrimidin-2-yl]amino}-N-[4-(dimethylamino)cyclohexyl]benzamide]",< 10 nM
3,"O=c1c2cnc(Nc3ccccc3)nc2n2ccnc2n1-c1c(Cl)cccc1Cl [Example 84, 6-(2,6-dichlorophenyl)-2-(phenylamino)imidazo[1,2-a]pyrimido[5,4-e]pyrimidin-5(6H)-one]",< 10 nM
4,"CS(=O)(=O)N1Cc2cc(Nc3ncc4c(=O)n(-c5c(Cl)cccc5Cl)c5nccn5c4n3)ccc2C2(CC2)C1 [Example 206, 6-(2,6-dichlorophenyl)-2-{[2′-(methylsulfonyl)-2′,3′-dihydro-1′H-spiro[cyclopropane-1,4′-isoquinolin]-7′-yl]amino}imidazo[1,2-a]pyrimido[5,4-e]pyrimidin-5(6H)-one]",< 10 nM
5,"COC[C@H]1CCCN1c1ccc(Nc2ncc3c(=O)n(-c4ccccc4Cl)c4nccn4c3n2)cc1 [Example 251, 6-(2-chlorophenyl)-2-({4-[(2R)-2-(methoxymethyl)pyrrolidin-1-yl]phenyl}amino)imidazo[1,2-a]pyrimido[5,4-e]pyrimidin-5(6H)-one]",< 10 nM
6,"CN(C)CCCN1CCN(c2ccc(Nc3ncc4c(=O)n(-c5ccccc5Cl)c5nccn5c4n3)cc2)CC1 [Example 250, 6-(2-chlorophenyl)-2-[(4-{4-[3-(dimethylamino)propyl]piperazin-1-yl}phenyl)amino]imidazo[1,2-a]pyrimido[5,4-e]pyrimidin-5(6H)-one]",< 10 nM
7,"CN1CCCN(c2ccc(Nc3ncc4c(=O)n(-c5c(Cl)cccc5Cl)c5nccn5c4n3)cc2CO)CC1 [Example 121, 6-(2,6-dichlorophenyl)-2-{[3-(hydroxymethyl)-4-(4-methyl-1,4-diazepan-1-yl)phenyl]amino}imidazo[1,2-a]pyrimido[5,4-e]pyrimidin-5(6H)-one]",< 10 nM
8,"CCc1cc(Nc2ncc3c(=O)n(-c4c(Cl)cccc4Cl)c4nccn4c3n2)ccc1N1CCN(C)CC1 [Example 120, 6-(2,6-dichlorophenyl)-2-{[3-ethyl-4-(4-methylpiperazin-1-yl)phenyl]amino}imidazo[1,2-a]pyrimido[5,4-e]pyrimidin-5(6H)-one]",< 10 nM
9,"O=c1c2cnc(Nc3ccc(N4CCCC4C(F)(F)F)cc3)nc2n2ccnc2n1-c1ccccc1Cl (centres unmarked) [Example 289, 6-(2-chlorophenyl)-2-({4-[2-(trifluoromethyl)pyrrolidin-1-yl]phenyl}amino)imidazo[1,2-a]pyrimido[5,4-e]pyrimidin-5(6H)-one]",10 to 100 nM
10,"O=c1c2cnc(Nc3ccc(C4CCCN4)cc3)nc2n2ccnc2n1-c1c(Cl)cccc1Cl (centres unmarked) [Example 134, 6-(2,6-dichlorophenyl)-2-{[4-(pyrrolidin-2-yl)phenyl]amino}imidazo[1,2-a]pyrimido[5,4-e]pyrimidin-5(6H)-one]",< 10 nM
11,"CC(C)[C@H]1CN(c2ccc(Nc3ncc4c(=O)n(-c5c(Cl)cccc5Cl)c5nccn5c4n3)cc2)CCN1 [Example 195, 6-(2,6-dichlorophenyl)-2-({4-[(3S)-3-(propan-2-yl)piperazin-1-yl]phenyl}amino)imidazo[1,2-a]pyrimido[5,4-e]pyrimidin-5(6H)-one]",< 10 nM
12,"O=c1c2cnc(Nc3ccc4c(c3)CCCC4)nc2n2ccnc2n1-c1ccccc1Cl [Example 5, 6-(2-chlorophenyl)-2-(5,6,7,8-tetrahydronaphthalen-2-ylamino)imidazo[1,2-a]pyrimido[5,4-e]pyrimidin-5(6H)-one]",10 to 100 nM
13,"O=c1c2cnc(Nc3ccc(N4CC5CNCC5C4)cc3)nc2n2ccnc2n1-c1ccccc1Cl (centres unmarked) [Example 292, 6-(2-chlorophenyl)-2-{[4-(hexahydropyrrolo[3,4-c]pyrrol-2(1H)-yl)phenyl]amino}imidazo[1,2-a]pyrimido[5,4-e]pyrimidin-5(6H)-one]",< 10 nM
14,"CN1CCN(c2ccc(Nc3ncc4c(=O)n(-c5ccccc5OC(F)(F)F)c5nccn5c4n3)cc2)CC1 [Example 341, 2-{[4-(4-methylpiperazin-1-yl)phenyl]amino}-6-[2-(trifluoromethoxy)phenyl]imidazo[1,2-a]pyrimido[5,4-e]pyrimidin-5(6H)-one]",> 100 nM
15,"O=c1c2cnc(Nc3ccc4c(c3)CN(CCO)CC4)nc2n2ccnc2n1-c1ccccc1Cl [Example 99, 6-(2-chlorophenyl)-2-{[2-(2-hydroxyethyl)-1,2,3,4-tetrahydroisoquinolin-7-yl]amino}imidazo[1,2-a]pyrimido[5,4-e]pyrimidin-5(6H)-one]",< 10 nM
16,"O=c1c2cnc(Nc3ccc(C(F)(F)F)cc3)nc2n2ccnc2n1-c1ccccc1Cl [Example 348, 6-(2-chlorophenyl)-2-{[4-(trifluoromethyl)phenyl]amino}imidazo[1,2-a]pyrimido[5,4-e]pyrimidin-5(6H)-one]",> 100 nM
17,"CCS(=O)(=O)N1Cc2cc(Nc3ncc4c(=O)n(-c5c(Cl)cccc5Cl)c5nccn5c4n3)ccc2C(C)(C)C1 [Example 320, 6-(2,6-dichlorophenyl)-2-{[2-(ethylsulfonyl)-4,4-dimethyl-1,2,3,4-tetrahydroisoquinolin-7-yl]amino}imidazo[1,2-a]pyrimido[5,4-e]pyrimidin-5(6H)-one]",< 10 nM
18,"O=c1c2cnc(Nc3ccc4c(c3)CC(N3CCCC3)C4)nc2n2ccnc2n1-c1c(F)cccc1Cl (centres unmarked) [Example 259, 6-(2-chloro-6-fluorophenyl)-2-{[2-(pyrrolidin-1-yl)-2,3-dihydro-1H-inden-5-yl]amino}imidazo[1,2-a]pyrimido[5,4-e]pyrimidin-5(6H)-one]",< 10 nM
19,"O=c1c2cnc(Nc3ccc4c(c3)CNCC43CC3)nc2n2ccnc2n1-c1ccc(O)cc1 [Example 205, 2-(2′,3′-dihydro-1′H-spiro[cyclopropane-1,4′-isoquinolin]-7′-ylamino)-6-(4-hydroxyphenyl)imidazo[1,2-a]pyrimido[5,4-e]pyrimidin-5(6H)-one]",< 10 nM
20,"O=c1c2cnc(Nc3ccc4c(c3)CN(CCF)CC43CC3)nc2n2ccnc2n1-c1c(F)cccc1Cl [Example 225, 6-(2-chloro-6-fluorophenyl)-2-{[2′-(2-fluoroethyl)-2′,3′-dihydro-1′H-spiro[cyclopropane-1,4′-isoquinolin]-7′-yl]amino}imidazo[1,2-a]pyrimido[5,4-e]pyrimidin-5(6H)-one]",< 10 nM
21,"O=C(C1CC1)N1Cc2cc(Nc3ncc4c(=O)n(-c5c(Cl)cc(F)cc5Cl)c5nccn5c4n3)ccc2C2(CC2)C1 [Example 171, 2-{[2′-(cyclopropylcarbonyl)-2′,3′-dihydro-1′H-spiro[cyclopropane-1,4′-isoquinolin]-7′-yl]amino}-6-(2,6-dichloro-4-fluorophenyl)imidazo[1,2-a]pyrimido[5,4-e]pyrimidin-5(6H)-one]",< 10 nM
22,"O=c1c2cnc(Nc3ccc4c(c3)CC(N3CCCC3)C4)nc2n2ccnc2n1-c1c(Cl)cccc1Cl (centres unmarked) [Example 305, 6-(2,6-dichlorophenyl)-2-{[2-(pyrrolidin-1-yl)-2,3-dihydro-1H-inden-5-yl]amino}imidazo[1,2-a]pyrimido[5,4-e]pyrimidin-5(6H)-one]",< 10 nM
23,"CCN1Cc2cc(Nc3ncc4c(=O)n(-c5ccccc5Cl)c5nccn5c4n3)ccc2C(C)(C)C1 [Example 161, 6-(2-chlorophenyl)-2-[(2-ethyl-4,4-dimethyl-1,2,3,4-tetrahydroisoquinolin-7-yl)amino]imidazo[1,2-a]pyrimido[5,4-e]pyrimidin-5(6H)-one]",< 10 nM
24,"O=c1c2cnc(Nc3ccc(C4CCCCC4)cc3)nc2n2ccnc2n1-c1c(Cl)cccc1Cl [Example 167, 2-[(4-cyclohexylphenyl)amino]-6-(2,6-dichlorophenyl)imidazo[1,2-a]pyrimido[5,4-e]pyrimidin-5(6H)-one]",10 to 100 nM
25,"CN1CCN(c2ccc(Nc3ncc4c(=O)n(-c5ccccc5Cl)c5nnnn5c4n3)cc2)CC1 [Example 28, 4-(2-chlorophenyl)-8-{[4-(4-methylpiperazin-1-yl)phenyl]amino}pyrimido[5,4-e]tetrazolo[1,5-a]pyrimidin-5(4H)-one]",10 to 100 nM
26,"O=c1c2cnc(Nc3cc(F)c(N4CCNCC4)c(F)c3)nc2n2ccnc2n1-c1ccccc1Cl [Example 203, 6-(2-chlorophenyl)-2-{[3,5-difluoro-4-(piperazin-1-yl)phenyl]amino}imidazo[1,2-a]pyrimido[5,4-e]pyrimidin-5(6H)-one]",< 10 nM
27,"CN1CCc2cc(Nc3ncc4c(=O)n(-c5ccccc5Cl)c5nccn5c4n3)ccc2C1(C)C [Example 133, 6-(2-chlorophenyl)-2-[(1,1,2-trimethyl-1,2,3,4-tetrahydroisoquinolin-6-yl)amino]imidazo[1,2-a]pyrimido[5,4-e]pyrimidin-5(6H)-one]",< 10 nM
28,"O=c1c2cnc(Nc3ccc4c(c3)CCN(CC(F)F)CC4)nc2n2ccnc2n1-c1ccccc1Cl [Example 185, 6-(2-chlorophenyl)-2-{[3-(2,2-difluoroethyl)-2,3,4,5-tetrahydro-1H-3-benzazepin-7-yl]amino}imidazo[1,2-a]pyrimido[5,4-e]pyrimidin-5(6H)-one]",< 10 nM
29,"CC1(C)CN(CC2CCN(Cc3ccccc3)CC2)Cc2cc(Nc3ncc4c(=O)n(-c5ccccc5Cl)c5nccn5c4n3)ccc21 [Example 164, 2-({2-[(1-benzylpiperidin-4-yl)methyl]-4,4-dimethyl-1,2,3,4-tetrahydroisoquinolin-7-yl}amino)-6-(2-chlorophenyl)imidazo[1,2-a]pyrimido[5,4-e]pyrimidin-5(6H)-one]",< 10 nM
